Experimental data as given in patent US10358436B2, “Kinase inhibitors and method of treating cancer” (University Health Network, priority 2010, dated 2019).
Where a name gives a salt, the structure may show the parent alone.

Target: Aurora A (Homo sapiens (Human), UniProt O14965)
Experiment: Aurora A inhibition assay (Z-Lyte)
Assay type: biochemical

Aurora A, sequence (O14965 whole entry): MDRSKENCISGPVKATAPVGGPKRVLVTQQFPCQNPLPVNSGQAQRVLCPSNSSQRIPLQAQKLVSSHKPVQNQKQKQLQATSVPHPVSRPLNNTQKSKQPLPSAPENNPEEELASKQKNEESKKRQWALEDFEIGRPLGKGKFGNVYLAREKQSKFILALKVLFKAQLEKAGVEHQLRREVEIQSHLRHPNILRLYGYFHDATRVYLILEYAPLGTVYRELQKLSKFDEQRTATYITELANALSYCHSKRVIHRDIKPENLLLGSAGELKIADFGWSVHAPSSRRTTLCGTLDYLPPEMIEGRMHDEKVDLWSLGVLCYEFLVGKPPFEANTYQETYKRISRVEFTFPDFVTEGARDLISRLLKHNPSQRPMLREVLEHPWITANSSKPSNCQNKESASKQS

For `COc1ccc2c(c1)C1(CC1c1ccc3c(I)n[nH]c3c1)C(=O)N2` (single isomer, unassigned) [Example A6, (1R*,2S*)- and (1R*,2R*)-2-(3-iodo-1H-indazol-6-yl)-5′-methoxyspiro-[cyclopropane-1,3′-indolin]-2′-one], which inhibition at 1 µM is on record?
Its inhibition at 1 µM is less than 50%.

Which inhibition at 1 µM does the source give for `COc1ccc2c(c1)[C@]1(CC1c1ccc3c(/C=C/c4ccc(N5CCN(C)CC5)nc4)n[nH]c3c1)C(=O)N2` (single isomer, unassigned) [Example A31, (1R*,2S*)-5′-methoxy-2-(3-((E)-2-(6-(4-methylpiperazin-1-yl)pyridin-3-yl)vinyl)-1H-indazol-6-yl)spiro[cyclopropane-1,3′-indolin]-2′-one] here?
The inhibition at 1 µM was greater than 50%.

`COc1ccc2c(c1)[C@@]1(C[C@@H]1c1ccc3c(-c4ccc(N5CCN(C)CC5)nc4)n[nH]c3c1)C(=O)N2` (stereo in doubt) [Example A16, (1S,2R)-5′-methoxy-2-(3-(6-(4-methylpiperazin-1-yl)pyridin-3-yl)-1H-indazol-6-yl)spiro[cyclopropane-1,3′-indolin]-2′-one] was tested. Which inhibition at 1 µM did it give?
Its inhibition at 1 µM is less than 50%.

How did the inhibition at 1 µM turn out when `COc1ccc2c(c1)[C@]1(C[C@H]1c1ccc3c(I)n[nH]c3c1)C(=O)N2` [Example A7, (1R,2S)-2-(3-iodo-1H-indazol-6-yl)-5′-methoxyspiro[cyclopropane-1,3′-indolin]-2′-one] was run?
The inhibition at 1 µM was less than 50%.

With `O=C1Nc2ccccc2[C@]12C[C@H]2c1ccc2c(I)n[nH]c2c1` [Example A10, (1R,2S)-2-(3-iodo-1H-indazol-6-yl)spiro[cyclopropane-1,3′-indolin]-2′-one] as the compound, how does the inhibition at 1 µM read?
The inhibition at 1 µM was less than 50%.

Which inhibition at 1 µM does the source give for `COc1ccc2c(c1)[C@@]1(C[C@@H]1c1ccc3c(-c4ccc(N5CCN(C)CC5)nc4)n[nH]c3c1)C(=O)N2` [Example A15, (1S,2R)-5′-methoxy-2-(3-(6-(4-methylpiperazin-1-yl)pyridin-3-yl)-1H-indazol-6-yl)spiro[cyclopropane-1,3′-indolin]-2′-one] here?
The inhibition at 1 µM was less than 50%.

How did the inhibition at 1 µM turn out when `O=C1Nc2ccccc2[C@]12C[C@H]2c1ccc2c(/C=C/c3cccnc3)n[nH]c2c1` [Example A29, (1R,2S)-2-(3-((E)-2-(pyridin-3-yl)vinyl)-1H-indazol-6-yl)spiro[cyclopropane-1,3′-indolin]-2′-one] was run?
The inhibition at 1 µM was greater than 50%.

With `O=C1Nc2ccccc2[C@@]12C[C@@H]2c1ccc2c(/C=C/c3cccnc3)n[nH]c2c1` [Example A30, (1S,2R)-2-(3-((E)-2-(pyridin-3-yl)vinyl)-1H-indazol-6-yl)spiro[cyclopropane-1,3′-indolin]-2′-one] as the compound, how does the inhibition at 1 µM read?
Its inhibition at 1 µM is greater than 50%.

With `COc1ccc2c(c1)[C@@]1(C[C@@H]1c1ccc3c(-c4ccc(N5CCNCC5)cc4)n[nH]c3c1)C(=O)N2` [Example A50, (1S,2R)-5′-methoxy-2-(3-(4-(piperazin-1-yl)phenyl)-1H-indazol-6-yl)spiro[cyclopropane-1,3′-indolin]-2′-one 2,2,2-trifluoroacetate] as the compound, how does the inhibition at 1 µM read?
Its inhibition at 1 µM is less than 50%.

Which inhibition at 1 µM does the source give for `O=C1Nc2ccccc2[C@]12C[C@H]2c1ccc2c(/C=C/c3ccc(CN4CCCCC4)cc3)n[nH]c2c1` [Example A58, (1R,2S)-(E)-2-(3-(4-(piperidin-1-ylmethyl)styryl)-1H-indazol-6-yl)spiro[cyclopropane-1,3′-indolin]-2′-one 2,2,2-trifluoroacetate] here?
Its inhibition at 1 µM is greater than 50%.

Which inhibition at 1 µM does the source give for `COc1ccc2c(c1)[C@]1(C[C@H]1c1ccc3c(/C=C/c4ccc(CN5CCCCC5)cc4)n[nH]c3c1)C(=O)N2` [Example A59, (1R,2S)-(E)-5′-methoxy-2-(3-(4-(piperidin-1-ylmethyl)styryl)-1H-indazol-6-yl)spiro[cyclopropane-1,3′-indolin]-2′-one 2,2,2-trifluoroacetate salt] here?
The inhibition at 1 µM was greater than 50%.

How did the inhibition at 1 µM turn out when `O=C1Nc2ccccc2[C@]12C[C@H]2c1ccc2c(/C=C/c3ccc(CN4CCCC4)cc3)n[nH]c2c1` [Example A61, (1R,2S)-(E)-2-(3-(4-(pyrolidin-1-ylmethyl)styryl)-1H-indazol-6-yl)spiro[cyclopropane-1,3′-indolin]-2′-one 2,2,2-trifluoroacetate] was run?
Its inhibition at 1 µM is greater than 50%.
